Assay results taken from patent publication US11358939B2, “1,4-benzodiazepin-2-one derivatives and use thereof” (priority 2017, dated 2022).

What was measured:
Format in all cases: in vivo
[1] = system: number of drinking actions despite electric shock; test: Anxiolytic activity, conflict situation model (drinking versus electric shock); conditions: for Anxiolytic activity assessed using conflict situation method (5 mg/kg): number of drinking actions despite electric shock, 30 min before test; for Anxiolytic properties: 5 mg/kg
Protocol: Anxiolytic activity was assessed in a model of conflict situation based on the conflict of two reflexes (drinking and defensive) when drinking water from a water fountain. Anxiolytic activity was assessed by the number of drinking actions despite electric shock.
(§1) Diazepam drug was used as the reference drug. All test compounds and the reference drug diazepam were administered in a suspension with Tween-80 in 5 mg/kg dose 30 min before the start of experiments.

[2] = system: general movement activity of animals; test: General movement activity, open field test; conditions: for General movement activity (5 mg/kg): open field 3 min, sum of rearings, transitions, explored holes, 30 min before test; for Sedative properties (words, from general movement activity versus control): 5 mg/kg
Protocol: General movement activity was assessed in an open field test. While the animals were in the open field (3 min), the number of rearings (vertical movement activity), transitions between squares (horizontal movement activity) and the number of explored holes (exploratory activity) were registered. The sum of these values is general movement activity.
as §1

[3] = system: writhes induced by intraperitoneal acetic acid; test: Analgesic activity, acetic acid-induced writhing test (peripheral pain model); conditions: for Writhing inhibition, % of control in 1 mg/kg dose: 1 mg/kg intraperitoneally, 40 min before 0.75% acetic acid; for ED50: ip; for ED50 / ED50, analgesic activity in writhing test: intraperitoneal, Prozorovsky method
Protocol: Assessment of analgesic activity was performed in a model of peripheral pain based on chemical pain induced by intraperitoneal administration of acetic acid, leading to involuntary contractions of abdominal muscles, termed “writhes”, accompanied by hind leg extension and spine arching. The writhes were induced by 0.75% solution of acetic acid, which was administered intraperitoneally 40 min after intraperitoneal administration of test compounds in 0.001-5 mg/kg dose range. […] Analgesic activity was assessed by the ability of the compounds to reduce the number of writhes in test group compared to control group, and indicated as percentage using the following formula: AA=(Wc−Wt/Wc)×100%,
where AA—analgesic activity in %;
Wc—average number of writhes in control group;
Wt—average number of writhes in test group
Test compounds were studied in comparison with the reference drug sodium diclofenac in 10 mg/kg dose. ED50 was calculated using Prozorovsky method.

[4] = system: food consumption by rats; test: Action on appetite, Anorexia method (liquid food consumption); conditions: for Amount of consumed liquid food during 30 min in ml / Food consumption, % of control: dose 0,1 mg/kg intraperitoneally; for Reduction in appetite and food consumption compared to control: Table 6 dose 0,1 mg/kg
Protocol: Studies of pharmacological activity of 3-arylamino-1,3-dihydro-2H-benzo[e][1,4]diazepin-2-ones, namely, their action of appetite, assessment of antihypoxic and antidepressant activity was performed in white male rats with body mass 150-180 g and male mice with body mass 18-22 g. The animals were kept on a standard laboratory diet and natural lighting. Animals of control group were given a water-Tween suspension. Test compounds were administered in a suspension with Tween-80 Reference drugs were the hormone leptin, in 0.0002 mg/kg dose, and a well-known antidepressant amitriptyline (solution for injections in 1 ml vials. Test compounds and the water-Tween suspension were administered in a dose of 0.2 ml/100 g of rat body mass.
The action of the compounds on rat appetite was studied using «norexia» method. For 2 weeks in an experimental equipment the rats were conditioned to consume liquid food. Then a water-Tween suspension of test articles was administered intraperitoneally to conditioned animals one day before the experiment. After 40 minutes the animals were allowed access to liquid food and the amount of consumed food (in ml) of every rat was registered every 30 minutes for 3 hours. The next day after 2 hours of deprivation the rats in control group were administered a water-Tween suspension intraperitoneally, while the test group was administered the test articles. After 40 minutes the animals were allowed access to liquid food and the amount of consumed food (in ml) of every rat was registered every 30 minutes for 3 hours. Then all food consumption values for each rat were summed and compared to control values. The control group has consumed on average 7 ml of liquid food per 30 minutes. The effect was calculated in percentage compared to control.

| Structure (SMILES) | Anxiolytic activity assessed using conflict situation method (5 mg/kg) [1] | General movement activity (5 mg/kg) [2] | Writhing inhibition, % of control in 1 mg/kg dose ([3]; compounds Ib) | Amount of consumed liquid food during 30 min in ml [4] | Food consumption, % of control [4] | other results |
| --- | --- | --- | --- | --- | --- | --- |
| COC(=O)CN1C(=O)C(Nc2ccc(C(F)(F)F)cc2)N=C(c2ccccc2F)c2cc([N+](=O)[O-])ccc21 (centres unmarked) [Compound 400] | 32.2 ± 3.3 | 36.5 ± 3.3 | 60% |  |  |  |
| O=C1Nc2ccc([N+](=O)[O-])cc2C(c2ccccc2)=NC1Nc1cccc(Cl)c1 (centres unmarked) [Compound 249] |  |  |  | 5,1 ± 2,2 ml | 69% |  |
| COC(=O)CN1C(=O)C(Nc2ccc(Br)cc2)N=C(c2ccccc2Cl)c2cc([N+](=O)[O-])ccc21 (centres unmarked) [Compound 328] | 23.2 ± 3.4 | 24.5 ± 2.3 | 69% |  |  |  |
| COC(=O)CN1C(=O)C(Nc2ccccc2[N+](=O)[O-])N=C(c2ccccc2)c2cc([N+](=O)[O-])ccc21 (centres unmarked) [Compound 281] | 115.6 ± 9.3 | 14.0 ± 1.4 | 61% |  |  | Anxiolytic properties [1]: potent anxiolytic properties |
| COc1ccc2c(c1)c(CC(=O)O)c(C)n2C(=O)c1ccc(Cl)cc1 [indomethacin, reference compound] |  |  |  |  |  | ED50 [3]: 1.5 ± 0.26 mg/kg |
| COC(=O)CN1C(=O)C(Nc2ccccc2C(F)(F)F)N=C(c2ccccc2F)c2cc([N+](=O)[O-])ccc21 (centres unmarked) [Compound 398] | 33.1 ± 3.2 | 28.2 ± 3.3 | 68% |  |  |  |
| COC(=O)CN1C(=O)C(Nc2cccc(Cl)c2)N=C(c2ccccc2F)c2cc([N+](=O)[O-])ccc21 (centres unmarked) [Compound 363] | 46.4 ± 4.2 | 41.0 ± 3.9 | 70% |  |  | Sedative properties (words, from general movement activity versus control) [2]: don't have sedative properties |
| CC(=O)c1cccc(NC2N=C(c3ccccc3F)c3cc([N+](=O)[O-])ccc3NC2=O)c1 (centres unmarked) [Compound 348] |  |  |  | 21,4 ± 4,9 ml | 284% |  |
| CCCOC1N=C(c2ccccc2)c2cc(Cl)ccc2N(CC(=O)OC)C1=O (centres unmarked) [Compound 22] |  |  |  |  |  | Writhing inhibition, % of control in 1 mg/kg dose ([3]; compounds Ia): 70%; ED50, analgesic activity in writhing test [3]: 0.08 ± 0.02 mg/kg |
| COC(=O)CN1C(=O)C(Nc2ccccc2C(C)=O)N=C(c2ccccc2F)c2cc(Br)ccc21 (centres unmarked) [Compound 89] | 3.4 ± 1.2 | 40.0 ± 2.7 | 66% |  |  | Sedative properties (words, from general movement activity versus control) [2]: don't have sedative properties |
| O=C1Nc2ccc(Cl)cc2C(c2ccccc2)=NC1Nc1ccccc1Br (centres unmarked) [Compound 161] |  |  |  | 5,5 ± 2,4 ml | 74% |  |
| COC(=O)CN1C(=O)C(Nc2ccccc2[N+](=O)[O-])N=C(c2ccccc2)c2cc(OC(F)(F)F)ccc21 (centres unmarked) [Compound 227] | 109.5 ± 8.3 | 13.0 ± 1.3 | 60% |  |  | Anxiolytic properties [1]: potent anxiolytic properties |
| O=C1Nc2ccc(OC(F)(F)F)cc2C(c2ccccc2)=NC1Nc1cccc(Cl)c1 (centres unmarked) [Compound 195] |  |  |  | 5,7 ± 2,2 ml | 77% |  |
| COC(=O)CN1C(=O)C(Nc2ccccc2[N+](=O)[O-])N=C(c2ccccc2)c2cc(Cl)ccc21 (centres unmarked) [Compound 173] | 120.5 ± 10.3 | 15.0 ± 1.3 | 55% |  |  | Anxiolytic properties [1]: potent anxiolytic properties |
| O=C1Nc2ccc([N+](=O)[O-])cc2C(c2ccccc2Cl)=NC1Nc1ccccc1Br (centres unmarked) [Compound 320] |  |  |  | 6,5 ± 3,4 ml | 88% |  |
| COC(=O)CN1C(=O)C(Nc2cccc(Br)c2)N=C(c2ccccc2Cl)c2cc([N+](=O)[O-])ccc21 (centres unmarked) [Compound 327] | 43.4 ± 3.2 | 45.0 ± 3.7 | 70% |  |  | Sedative properties (words, from general movement activity versus control) [2]: don't have sedative properties |

| Structure (SMILES) | Anxiolytic activity assessed using conflict situation method (5 mg/kg) [1] | General movement activity (5 mg/kg) [2] | Writhing inhibition, % of control in 1 mg/kg dose ([3]; compounds Ib) | Amount of consumed liquid food during 30 min in ml [4] | Food consumption, % of control [4] | other results |
| --- | --- | --- | --- | --- | --- | --- |
| COC(=O)CN1C(=O)C(Nc2cccc(C(C)=O)c2)N=C(c2ccccc2F)c2cc(Br)ccc21 (centres unmarked) [Compound 90] | 8.2 ± 3.4 | 24.5 ± 2.3 | 68% |  |  |  |
| O=C1Nc2ccc(Cl)cc2C(c2ccccc2)=NC1Nc1ccc(Br)cc1 (centres unmarked) [Compound 163] |  |  |  | 6,8 ± 2,7 ml | 92% |  |
| O=C1Nc2ccc(OC(F)(F)F)cc2C(c2ccccc2)=NC1Nc1ccc(Cl)cc1 (centres unmarked) [Compound 196] |  |  |  | 6,5 ± 3,2 ml | 88% |  |
| O=C(O)Cc1ccccc1Nc1c(Cl)cccc1Cl [sodium diclofenac, reference compound] |  |  |  |  |  | ED50 [3]: 10 ± 1.8 mg/kg |
| CC(=O)c1ccc(NC2N=C(c3ccccc3F)c3cc([N+](=O)[O-])ccc3NC2=O)cc1 (centres unmarked) [Compound 349] |  |  |  | 14 ± 1,8 ml | 189% |  |
| O=C1Nc2ccc(Cl)cc2C(c2ccccc2)=NC1Nc1cccc(Br)c1 (centres unmarked) [Compound 162] |  |  |  | 5,1 ± 2,2 ml | 69% |  |
| O=C1Nc2ccc([N+](=O)[O-])cc2C(c2ccccc2)=NC1Nc1ccccc1Cl (centres unmarked) [Compound 248] |  |  |  | 3,1 ± 2,4 ml | 41% | Reduction in appetite and food consumption compared to control [4]: 41% |
| O=C1Nc2ccc([N+](=O)[O-])cc2C(c2ccccc2Cl)=NC1Nc1cccc(Br)c1 (centres unmarked) [Compound 321] |  |  |  | 6,1 ± 3,2 ml | 82% |  |
| O=C1Nc2ccc([N+](=O)[O-])cc2C(c2ccccc2Cl)=NC1Nc1ccc(Br)cc1 (centres unmarked) [Compound 322] |  |  |  | 7,8 ± 2,7 ml | 105% |  |
| O=C1Nc2ccc(Cl)cc2C(c2ccccc2)=NC1Nc1ccccc1F (centres unmarked) [Compound 152] |  |  |  | 3,5 ± 1,3 ml | 47% |  |
| CC(=O)c1ccccc1NC1N=C(c2ccccc2F)c2cc([N+](=O)[O-])ccc2NC1=O (centres unmarked) [Compound 347] |  |  |  | 6,5 ± 2,7 ml | 105% |  |
| O=C1Nc2ccc([N+](=O)[O-])cc2C(c2ccccc2F)=NC1Nc1ccc(Cl)cc1 (centres unmarked) [Compound 358] |  |  |  | 6,7 ± 3,2 ml | 90% | Effect on appetite [4]: hyperphagic effect |
| CN1C(=O)CN=C(c2ccccc2)c2cc(Cl)ccc21 [Diazepam, reference compound] | 120.0 ± 4.9 | 32.5 ± 2.8 |  |  |  |  |
| O=C1Nc2ccc([N+](=O)[O-])cc2C(c2ccccc2F)=NC1Nc1ccccc1Cl (centres unmarked) [Compound 356] |  |  |  | 2,9 ± 2,1 ml | 39% | Reduction in appetite and food consumption compared to control [4]: 39% |
| CCOC1N=C(c2ccccc2)c2cc(Cl)ccc2N(CC(=O)OC)C1=O (centres unmarked) [Compound 21] |  |  |  |  |  | Writhing inhibition, % of control in 1 mg/kg dose ([3]; compounds Ia): 62%; ED50, analgesic activity in writhing test [3]: 0.29 ± 0.025 mg/kg |
| CCCCOC1N=C(c2ccccc2)c2cc(Cl)ccc2N(CC(=O)OC)C1=O (centres unmarked) [Compound 23] |  |  |  |  |  | Writhing inhibition, % of control in 1 mg/kg dose ([3]; compounds Ia): 52% |
